Assay results as given in the CheMixHub viscosity set.
± gives the uncertainty stated by the source.

Assay: xn = mol fraction of the nth substance listed

Cc1ccccc1 + CO
Conditions | viscosity [mPa·s]
293.15 K, 101 kPa, x1 = 0.0405 | 0.5903 ± 0.015
293.15 K, 101 kPa, x1 = 0.0868 | 0.5951 ± 0.015
293.15 K, 101 kPa, x1 = 0.1401 | 0.6009 ± 0.016
293.15 K, 101 kPa, x1 = 0.2022 | 0.6067 ± 0.016
293.15 K, 101 kPa, x1 = 0.2755 | 0.6121 ± 0.016
293.15 K, 101 kPa, x1 = 0.3632 | 0.6167 ± 0.016
293.15 K, 101 kPa, x1 = 0.4701 | 0.6194 ± 0.016
293.15 K, 101 kPa, x1 = 0.6033 | 0.6184 ± 0.016
293.15 K, 101 kPa, x1 = 0.7739 | 0.6098 ± 0.016
293.15 K, 101 kPa, x2 = 0.2 | 0.582 ± 0.012
293.15 K, 101 kPa, x2 = 0.4 | 0.601 ± 0.012
293.15 K, 101 kPa, x2 = 0.6 | 0.62 ± 0.012
293.15 K, 101 kPa, x2 = 0.8 | 0.623 ± 0.012
293.16 K, 101 kPa, x2 = 0.7465 | 0.6073 ± 0.016
293.16 K, 101 kPa, x2 = 0.8178 | 0.6149 ± 0.016
293.16 K, 101 kPa, x2 = 0.9632 | 0.6049 ± 0.016
298.15 K, 101 kPa, x1 = 0.0405 | 0.552 ± 0.014
298.15 K, 101 kPa, x1 = 0.0868 | 0.5572 ± 0.015
298.15 K, 101 kPa, x1 = 0.1401 | 0.5628 ± 0.015
298.15 K, 101 kPa, x1 = 0.2022 | 0.5679 ± 0.015
298.15 K, 101 kPa, x1 = 0.2755 | 0.573 ± 0.015
298.15 K, 101 kPa, x1 = 0.3632 | 0.5779 ± 0.015
298.15 K, 101 kPa, x1 = 0.4701 | 0.5803 ± 0.015
298.15 K, 101 kPa, x1 = 0.6033 | 0.5796 ± 0.015
298.15 K, 101 kPa, x1 = 0.7739 | 0.5809 ± 0.015
298.15 K, 101 kPa, x2 = 0.0499 | 0.551 ± 0.01
298.15 K, 101 kPa, x2 = 0.0998 | 0.547 ± 0.01
298.15 K, 101 kPa, x2 = 0.1993 | 0.54 ± 0.01
298.15 K, 101 kPa, x2 = 0.2269 | 0.5998 ± 0.0056
298.15 K, 101 kPa, x2 = 0.2998 | 0.541 ± 0.01
298.15 K, 101 kPa, x2 = 0.3977 | 0.6168 ± 0.0058
298.15 K, 101 kPa, x2 = 0.4007 | 0.55 ± 0.01
298.15 K, 101 kPa, x2 = 0.4998 | 0.557 ± 0.01
298.15 K, 101 kPa, x2 = 0.5309 | 0.6284 ± 0.0059
298.15 K, 101 kPa, x2 = 0.6002 | 0.562 ± 0.01
298.15 K, 101 kPa, x2 = 0.6377 | 0.6259 ± 0.0059
298.15 K, 101 kPa, x2 = 0.7 | 0.572 ± 0.01
298.15 K, 101 kPa, x2 = 0.7252 | 0.6143 ± 0.0058
298.15 K, 101 kPa, x2 = 0.7983 | 0.599 ± 0.0057
298.15 K, 101 kPa, x2 = 0.8 | 0.569 ± 0.01
298.15 K, 101 kPa, x2 = 0.8606 | 0.5847 ± 0.0056
298.15 K, 101 kPa, x2 = 0.9 | 0.561 ± 0.01
298.15 K, 101 kPa, x2 = 0.9136 | 0.5831 ± 0.0056
298.15 K, 101 kPa, x2 = 0.9501 | 0.555 ± 0.01
298.15 K, 101 kPa, x2 = 0.9597 | 0.5642 ± 0.0054
298.16 K, 101 kPa, x2 = 0.4032 | 0.5406 ± 0.014
298.16 K, 101 kPa, x2 = 0.7442 | 0.5644 ± 0.015
298.16 K, 101 kPa, x2 = 0.9625 | 0.5599 ± 0.015
303 K, 101 kPa, x1 = 0.1006 | 0.549
303 K, 101 kPa, x1 = 0.2012 | 0.599
303 K, 101 kPa, x1 = 0.3009 | 0.585
303 K, 101 kPa, x1 = 0.3981 | 0.578
303 K, 101 kPa, x1 = 0.5016 | 0.573
303 K, 101 kPa, x1 = 0.6052 | 0.566
303 K, 101 kPa, x1 = 0.7001 | 0.562
303 K, 101 kPa, x1 = 0.8095 | 0.559
303 K, 101 kPa, x1 = 0.9011 | 0.537
303.15 K, 101.33 kPa, x1 = 0.0724 | 0.588 ± 0.016
303.15 K, 101.33 kPa, x1 = 0.0912 | 0.531 ± 0.01
303.15 K, 101.33 kPa, x1 = 0.1636 | 0.588 ± 0.016
303.15 K, 101.33 kPa, x1 = 0.2105 | 0.539 ± 0.01
303.15 K, 101.33 kPa, x1 = 0.2773 | 0.542 ± 0.01
303.15 K, 101.33 kPa, x1 = 0.3517 | 0.569 ± 0.015
303.15 K, 101.33 kPa, x1 = 0.3723 | 0.54 ± 0.01
303.15 K, 101.33 kPa, x1 = 0.4963 | 0.529 ± 0.01
303.15 K, 101.33 kPa, x1 = 0.5095 | 0.544 ± 0.014
303.15 K, 101.33 kPa, x1 = 0.6126 | 0.539 ± 0.014
303.15 K, 101.33 kPa, x1 = 0.6944 | 0.515 ± 0.01
303.15 K, 101.33 kPa, x1 = 0.7321 | 0.532 ± 0.014
303.15 K, 101.33 kPa, x1 = 0.8307 | 0.513 ± 0.01
303.15 K, 101.33 kPa, x1 = 0.8541 | 0.527 ± 0.014
303.15 K, 101.33 kPa, x1 = 0.888 | 0.516 ± 0.01
303.15 K, 101.33 kPa, x1 = 0.9511 | 0.52 ± 0.01
308.15 K, 101 kPa, x1 = 0.0405 | 0.4855 ± 0.013
308.15 K, 101 kPa, x1 = 0.0868 | 0.4908 ± 0.013
308.15 K, 101 kPa, x1 = 0.1401 | 0.4965 ± 0.013
308.15 K, 101 kPa, x1 = 0.2022 | 0.5022 ± 0.013
308.15 K, 101 kPa, x1 = 0.2755 | 0.5079 ± 0.013
308.15 K, 101 kPa, x1 = 0.3632 | 0.5132 ± 0.013
308.15 K, 101 kPa, x1 = 0.4701 | 0.517 ± 0.013
308.15 K, 101 kPa, x1 = 0.6033 | 0.5188 ± 0.013
308.15 K, 101 kPa, x1 = 0.7739 | 0.5021 ± 0.013
308.15 K, 101.33 kPa, x1 = 0.0912 | 0.495 ± 0.007
308.15 K, 101.33 kPa, x1 = 0.2105 | 0.502 ± 0.007
308.15 K, 101.33 kPa, x1 = 0.2773 | 0.504 ± 0.007
308.15 K, 101.33 kPa, x1 = 0.3723 | 0.502 ± 0.007
308.15 K, 101.33 kPa, x1 = 0.4963 | 0.494 ± 0.007
308.15 K, 101.33 kPa, x1 = 0.6944 | 0.482 ± 0.007
308.15 K, 101.33 kPa, x1 = 0.8307 | 0.481 ± 0.007
308.15 K, 101.33 kPa, x1 = 0.888 | 0.483 ± 0.007
308.15 K, 101.33 kPa, x1 = 0.9511 | 0.488 ± 0.007
313.15 K, 101.33 kPa, x1 = 0.0724 | 0.5 ± 0.013
313.15 K, 101.33 kPa, x1 = 0.1636 | 0.503 ± 0.013
313.15 K, 101.33 kPa, x1 = 0.3517 | 0.487 ± 0.013
313.15 K, 101.33 kPa, x1 = 0.5095 | 0.485 ± 0.013
313.15 K, 101.33 kPa, x1 = 0.6126 | 0.48 ± 0.013
313.15 K, 101.33 kPa, x1 = 0.7321 | 0.475 ± 0.013
313.15 K, 101.33 kPa, x1 = 0.8541 | 0.464 ± 0.012
318.15 K, 101 kPa, x1 = 0.0405 | 0.4298 ± 0.011
318.15 K, 101 kPa, x1 = 0.0868 | 0.4372 ± 0.011
318.15 K, 101 kPa, x1 = 0.1401 | 0.4452 ± 0.012
318.15 K, 101 kPa, x1 = 0.2022 | 0.4538 ± 0.012
318.15 K, 101 kPa, x1 = 0.2755 | 0.4629 ± 0.012
318.15 K, 101 kPa, x1 = 0.3632 | 0.4726 ± 0.012
318.15 K, 101 kPa, x1 = 0.4701 | 0.4817 ± 0.013
318.15 K, 101 kPa, x1 = 0.6033 | 0.4892 ± 0.013
318.15 K, 101 kPa, x1 = 0.7739 | 0.4809 ± 0.012
323.15 K, 101.33 kPa, x1 = 0.0724 | 0.433 ± 0.012
323.15 K, 101.33 kPa, x1 = 0.1636 | 0.441 ± 0.012
323.15 K, 101.33 kPa, x1 = 0.3517 | 0.407 ± 0.011
323.15 K, 101.33 kPa, x1 = 0.5095 | 0.42 ± 0.011
323.15 K, 101.33 kPa, x1 = 0.6126 | 0.413 ± 0.011
323.15 K, 101.33 kPa, x1 = 0.7321 | 0.41 ± 0.011
323.15 K, 101.33 kPa, x1 = 0.8541 | 0.408 ± 0.011
